Literature values as cited in patent US9040021B2, “Heterocyclic compounds as imaging probes of tau pathology” (GE Healthcare Limited, priority 2010, dated 2015).

Target: tau aggregates (Homo sapiens, UniProt P10636)
Settings: in vitro; tau aggregates vs Aβ1-42 amyloid; fold selectivity

Sequence of tau aggregates (P10636 whole entry): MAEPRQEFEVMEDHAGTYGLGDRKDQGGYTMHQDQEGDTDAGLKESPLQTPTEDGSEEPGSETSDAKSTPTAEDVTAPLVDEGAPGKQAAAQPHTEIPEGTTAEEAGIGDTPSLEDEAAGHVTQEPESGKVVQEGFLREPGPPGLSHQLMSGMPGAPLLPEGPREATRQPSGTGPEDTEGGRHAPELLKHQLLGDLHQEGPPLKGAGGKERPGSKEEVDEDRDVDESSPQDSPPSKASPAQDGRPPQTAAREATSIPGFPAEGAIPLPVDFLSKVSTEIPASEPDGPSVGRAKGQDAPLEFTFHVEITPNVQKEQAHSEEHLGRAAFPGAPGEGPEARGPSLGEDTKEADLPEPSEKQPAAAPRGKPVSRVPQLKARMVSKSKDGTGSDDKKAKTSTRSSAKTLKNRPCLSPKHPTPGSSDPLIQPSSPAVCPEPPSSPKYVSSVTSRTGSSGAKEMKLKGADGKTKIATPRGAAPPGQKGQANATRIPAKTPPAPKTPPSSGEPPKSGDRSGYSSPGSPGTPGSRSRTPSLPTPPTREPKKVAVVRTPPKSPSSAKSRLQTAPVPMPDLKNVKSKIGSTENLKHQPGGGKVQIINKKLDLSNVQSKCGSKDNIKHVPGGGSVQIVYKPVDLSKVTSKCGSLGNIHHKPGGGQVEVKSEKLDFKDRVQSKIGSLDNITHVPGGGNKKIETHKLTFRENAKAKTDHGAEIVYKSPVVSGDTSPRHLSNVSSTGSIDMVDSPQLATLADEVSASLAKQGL

| SMILES | selectivity for tau aggregates over Aβ1-42 amyloid |
| --- | --- |
| Nc1ccc(-c2ccc3ccccc3n2)cc1 [BF-170, 2-(4-(amino)phenyl)quinoline] | threefold |
| CNc1ccc(-c2ccc3ccccc3n2)cc1 [BF-158, 2-(4-(methylamino)phenyl)quinoline] | threefold |
